# Test results reported in ChEMBL document CHEMBL4622912, “Isolation and biological activity of agrostophillinol from kaffir lime (Citrus hystrix) leaves” (Bioorg Med Chem Lett, 2020).
# The source made the active and inactive calls. No cut-off for these calls is given here.
# Columns and labels:
# HL-60 = test: Antiproliferative activity against human HL60 cells incubated for 2 days by MTT assay; type: functional, cell-based; conditions: HL-60, 48 h
# K562 = test: Antiproliferative activity against human K562 cells assessed as reduction in cell viability incubated for 2 days by MTT assay; type: functional, cell-based; conditions: K562, 48 h
# RAW264.7 [1] = test: Antiinflammatory activity against mouse RAW264.7 cells assessed as reduction in IL6 level; type: functional, cell-based
# RAW264.7 [2] = test: Antiinflammatory activity against mouse RAW264.7 cells assessed as reduction in TNFalpha level; type: functional, cell-based
# EOL1 = test: Antiproliferative activity against human EOL1 cells incubated for 2 days by MTT assay; type: functional, cell-based; conditions: EOL1, 48 h
# KG-1a = test: Antiproliferative activity against human KG1a cells assessed as reduction in cell viability incubated for 2 days by MTT assay; type: functional, cell-based; conditions: 48 h
# PBMC = test: Cytotoxicity against human PBMC assessed as reduction in cell viability incubated for 2 days by MTT assay; type: cell-based; conditions: 48 h
# [3] = Cytotoxicity against mouse RAW264.7 cells assessed as reduction in cell viability incubated for 2 days by MTT assay; type: cell-based
# [4] = Cytotoxicity against mouse RAW264.7 cells assessed as cell viability at 2.7 ug/ml incubated for 2 days by MTT assay relative to control; type: cell-based; conditions: read-out: Activity
# RAW264.7 [5] = test: Antiinflammatory activity against mouse RAW264.7 cells assessed as reduction in IL6 level at 2.7 ug/ml; type: functional, cell-based
# RAW264.7 [6] = test: Antiinflammatory activity against mouse RAW264.7 cells assessed as reduction in TNFalpha level at 2.7 ug/ml; type: functional, cell-based
# [7] = Antioxidant activity assessed as DPPH radical scavenging activity; type: functional; conditions: dose or concentration not given here
# [8] = Antioxidant activity assessed as trolox equivalent antioxidant capacity; type: functional
# [9] = Antioxidant activity assessed as ferric reducing ability; type: functional
structure (smiles),measurement,setting,value
CC[C@]1(O)C[C@H]2CN(CCc3c([nH]c4ccccc34)[C@@](C(=O)OC)(c3cc4c(cc3OC)N(C=O)[C@H]3[C@@](O)(C(=O)OC)[C@H](OC(C)=O)[C@]5(CC)C=CCN6CC[C@]43[C@@H]65)C2)C1 [VINCRISTINE],IC50,HL-60,0.008 µg/mL
C/C(=C\CO)CCC[C@H](C)CCC[C@H](C)CCCC(C)C [TRANS-PHYTOL],IC50,K562,45.8 µg/mL
C[C@@H]1C[C@H]2[C@@H]3CCC4=CC(=O)C=C[C@]4(C)[C@@]3(F)[C@@H](O)C[C@]2(C)[C@@]1(O)C(=O)CO,inhibition,RAW264.7 [1],Dose-dependent effect
same,inhibition,RAW264.7 [2],Dose-dependent effect
C=C(C)[C@@H]1CC[C@]2(C)CC[C@]3(C)[C@H](CC[C@@H]4[C@@]5(C)CC[C@H](O)C(C)(C)[C@@H]5CC[C@]43C)[C@@H]12 [LUPEOL],IC50,K562,82.8 µg/mL
C=C(CC[C@@H](C)[C@H]1CC[C@@]2(C)[C@@H]3CC[C@H]4C(C)(C)[C@@H](O)CC[C@]4(C)C3=CC[C@]12C)C(C)C,IC50,EOL1,36.3 µg/mL
same,IC50,HL-60,53.4 µg/mL
same,IC50,K562,> 100 µg/mL
same,IC50,KG-1a,> 100 µg/mL
same,IC50,PBMC,> 100 µg/mL
same,IC20 at 48 h,[3],2.7 µg/mL
same,"viability at 48 h, 2.7 ug/ml",[4],80%
same,inhibition,RAW264.7 [5],Active
same,inhibition,RAW264.7 [6],Active
same,inhibition,[7],8.6%
same,Activity,[8],0.1 µM
same,Activity,[9],0.2 µM
O=C1O[C@H]([C@@H](O)CO)C(O)=C1O,Activity,[8],1.7 µM
same,Activity,[9],23.7 µM
